Experiment in all cases: relative viability (nuclei count vs DMSO), 5 days (fraction); higher = more cells survive
Compound in the test “TPCA-1 + Foretinib”: C1=CC(=CC=C1C2=CC(=C(S2)NC(=O)N)C(=O)N)F [TPCA-1] + COc1cc2c(Oc3ccc(NC(=O)C4(C(=O)Nc5ccc(F)cc5)CC4)cc3F)ccnc2cc1OCCCN1CCOCC1 [Foretinib] (partner 0.25 µM)
A digest of the protocol:
(§1)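 Dosing by pin tool came one day after lung cancer cell lines were seeded in 1536-well plates, using either one drug or a fixed anchor-drug dose plus five library-drug doses (not always all listed) in √10 steps. After 5 days, nuclei were counted on 4× images. Relative viability is treated-well nuclei count divided by vehicle-well nuclei count, and values are medians of duplicate plates.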

Compound in the test “TPCA-1 + Lapatinib”: C1=CC(=CC=C1C2=CC(=C(S2)NC(=O)N)C(=O)N)F [TPCA-1] + CS(=O)(=O)CCNCc1ccc(-c2ccc3ncnc(Nc4ccc(OCc5cccc(F)c5)c(Cl)c4)c3c2)o1 [Lapatinib] (partner 2 µM)
A digest of the protocol:
as §1

Compound in the test “TPCA-1 + Bortezomib”: C1=CC(=CC=C1C2=CC(=C(S2)NC(=O)N)C(=O)N)F [TPCA-1] + CC(C)C[C@H](NC(=O)[C@H](Cc1ccccc1)NC(=O)c1cnccn1)B(O)O [Bortezomib] (partner 0.002 µM)
A digest of the protocol:
as §1

Compound in test [1]: C1/C(=C\C2=CC=CS2)/C(=O)/C(=C/C3=CC=CS3)/C1 + CC(=O)c1c(C)c2cnc(Nc3ccc(N4CCNCC4)cn3)nc2n(C2CCCC2)c1=O [Palbociclib] (partner 0.5 µM)
In outline: as §1

Take A549: the relative viability came to 0.989 in the test with TPCA-1 + Foretinib (first compound 0.04 µM); 1.03 with TPCA-1 + Foretinib (first compound 0.1265 µM); 0.947 in the test with TPCA-1 + Foretinib (first compound 0.4 µM); 0.826 with TPCA-1 + Foretinib (first compound 1.265 µM); 0.764 with TPCA-1 + Foretinib (first compound 4 µM); 1.03 with TPCA-1 + Lapatinib (first compound 0.04 µM). The relative viability was 0.922 with TPCA-1 + Lapatinib (first compound 0.1265 µM), 1.1 with TPCA-1 + Lapatinib (first compound 0.4 µM), 0.959 with TPCA-1 + Lapatinib (first compound 1.265 µM) and 0.969 with TPCA-1 + Lapatinib (first compound 4 µM).

For Calu-6, the relative viability in the test with TPCA-1 + Bortezomib (first compound 0.04 µM) was 1.1; with TPCA-1 + Bortezomib (first compound 0.1265 µM) it was 0.933; in the test with TPCA-1 + Bortezomib (first compound 0.4 µM), 1.09; with TPCA-1 + Bortezomib (first compound 1.265 µM) it was 0.873; with TPCA-1 + Bortezomib (first compound 4 µM), 0.658; with TPCA-1 + Foretinib (first compound 0.04 µM) it was 0.946. Also, the relative viability with TPCA-1 + Foretinib (first compound 0.1265 µM) was found to be 0.877; with TPCA-1 + Foretinib (first compound 0.4 µM), 0.862; with TPCA-1 + Foretinib (first compound 1.265 µM) it was 0.853; in the test with TPCA-1 + Foretinib (first compound 4 µM), 0.659; with TPCA-1 + Lapatinib (first compound 0.04 µM) it was 1.15; in the test with TPCA-1 + Lapatinib (first compound 0.1265 µM) it was 1.04. Besides, the relative viability with TPCA-1 + Lapatinib (first compound 0.4 µM) was determined as 1.01; with TPCA-1 + Lapatinib (first compound 1.265 µM), 0.956; in the test with TPCA-1 + Lapatinib (first compound 4 µM), 0.91.

For the cell line ChaGo-K-1, the relative viability in test [1] (first compound 0.2 µM) is 0.956; in test [1] (first compound 0.6325 µM) it was 0.954; in test [1] (first compound 2 µM), 0.84; in test [1] (first compound 6.325 µM), 0.719; in test [1] (first compound 20 µM) it was 0.479; with TPCA-1 + Bortezomib (first compound 0.04 µM) it was 0.83. The relative viability with TPCA-1 + Bortezomib (first compound 0.1265 µM) came out at 0.995; with TPCA-1 + Bortezomib (first compound 0.4 µM), 1.11; in the test with TPCA-1 + Bortezomib (first compound 1.265 µM), 0.903; in the test with TPCA-1 + Bortezomib (first compound 4 µM) it was 0.377; in the test with TPCA-1 + Foretinib (first compound 0.04 µM), 0.998; with TPCA-1 + Foretinib (first compound 0.1265 µM), 0.894. Further, the relative viability with TPCA-1 + Foretinib (first compound 0.4 µM) was 0.992; in the test with TPCA-1 + Foretinib (first compound 1.265 µM), 0.857; in the test with TPCA-1 + Foretinib (first compound 4 µM), 0.612.

In the case of EBC-1, the relative viability turned out to be 0.521 in the test with TPCA-1 + Bortezomib (first compound 0.04 µM); 0.617 in the test with TPCA-1 + Bortezomib (first compound 0.1265 µM); 0.618 with TPCA-1 + Bortezomib (first compound 0.4 µM); 0.59 with TPCA-1 + Bortezomib (first compound 1.265 µM); 0.479 with TPCA-1 + Bortezomib (first compound 4 µM); 0.0976 with TPCA-1 + Foretinib (first compound 0.04 µM). For the same cell line, the relative viability with TPCA-1 + Foretinib (first compound 0.1265 µM) is 0.0894; with TPCA-1 + Foretinib (first compound 0.4 µM), 0.103; with TPCA-1 + Foretinib (first compound 1.265 µM), 0.125; with TPCA-1 + Foretinib (first compound 4 µM) it was 0.13; with TPCA-1 + Lapatinib (first compound 0.04 µM), 0.201; with TPCA-1 + Lapatinib (first compound 0.1265 µM) it was 0.233. Also, the relative viability with TPCA-1 + Lapatinib (first compound 0.4 µM) was 0.196; in the test with TPCA-1 + Lapatinib (first compound 1.265 µM), 0.224; in the test with TPCA-1 + Lapatinib (first compound 4 µM), 0.248.

In the case of IA-LM, the relative viability with TPCA-1 + Bortezomib (first compound 0.04 µM) worked out at 0.834; with TPCA-1 + Bortezomib (first compound 0.1265 µM), 0.804; with TPCA-1 + Bortezomib (first compound 0.4 µM), 0.847; in the test with TPCA-1 + Bortezomib (first compound 1.265 µM), 0.781; with TPCA-1 + Bortezomib (first compound 4 µM), 0.559; in the test with TPCA-1 + Foretinib (first compound 0.04 µM) it was 1.14. The relative viability in the test with TPCA-1 + Foretinib (first compound 0.1265 µM) is 1.02; with TPCA-1 + Foretinib (first compound 0.4 µM), 1.09; in the test with TPCA-1 + Foretinib (first compound 1.265 µM), 1.01; with TPCA-1 + Foretinib (first compound 4 µM), 0.885; with TPCA-1 + Lapatinib (first compound 0.04 µM), 0.64; with TPCA-1 + Lapatinib (first compound 0.1265 µM), 0.804. Also, the relative viability with TPCA-1 + Lapatinib (first compound 0.4 µM) is 0.87; in the test with TPCA-1 + Lapatinib (first compound 1.265 µM) it was 0.626; with TPCA-1 + Lapatinib (first compound 4 µM), 0.896.

LCLC-103H: the relative viability stood at 0.49 in test [1] (first compound 0.2 µM); 0.456 in test [1] (first compound 0.6325 µM); 0.469 in test [1] (first compound 2 µM); 0.426 in test [1] (first compound 6.325 µM); 0.469 in test [1] (first compound 20 µM); 1.07 in the test with TPCA-1 + Bortezomib (first compound 0.04 µM). Further, the relative viability came out at 1.05 with TPCA-1 + Bortezomib (first compound 0.1265 µM); 1.1 with TPCA-1 + Bortezomib (first compound 0.4 µM); 0.987 with TPCA-1 + Bortezomib (first compound 1.265 µM); 1.02 with TPCA-1 + Bortezomib (first compound 4 µM); 0.899 with TPCA-1 + Foretinib (first compound 0.04 µM); 0.813 with TPCA-1 + Foretinib (first compound 0.1265 µM). Further, the relative viability amounted to 0.758 in the test with TPCA-1 + Foretinib (first compound 0.4 µM), 0.839 with TPCA-1 + Foretinib (first compound 1.265 µM) and 0.64 in the test with TPCA-1 + Foretinib (first compound 4 µM).

Turning to LK-2, the relative viability was determined as 0.639 in test [1] (first compound 0.2 µM); 0.706 in test [1] (first compound 2 µM); 0.787 in test [1] (first compound 6.325 µM); 0.732 in test [1] (first compound 20 µM); 1.5 in the test with TPCA-1 + Foretinib (first compound 0.04 µM); 0.969 with TPCA-1 + Foretinib (first compound 0.1265 µM). Moreover, the relative viability with TPCA-1 + Foretinib (first compound 0.4 µM) stood at 1.14; with TPCA-1 + Foretinib (first compound 1.265 µM), 1.14; with TPCA-1 + Foretinib (first compound 4 µM), 0.729; with TPCA-1 + Lapatinib (first compound 0.04 µM) it was 1.11; with TPCA-1 + Lapatinib (first compound 0.1265 µM) it was 0.636; with TPCA-1 + Lapatinib (first compound 0.4 µM) it was 0.879. Moreover, the relative viability came out at 0.874 with TPCA-1 + Lapatinib (first compound 1.265 µM) and 0.419 with TPCA-1 + Lapatinib (first compound 4 µM).

As to NCI-H358, the relative viability in test [1] (first compound 0.2 µM) is 0.187; in test [1] (first compound 0.6325 µM), 0.135; in test [1] (first compound 2 µM), 0.152; in test [1] (first compound 6.325 µM), 0.143; in test [1] (first compound 20 µM), 0.125; with TPCA-1 + Foretinib (first compound 0.04 µM), 0.811. The relative viability with TPCA-1 + Foretinib (first compound 0.1265 µM) is 0.729; with TPCA-1 + Foretinib (first compound 0.4 µM), 0.845; with TPCA-1 + Foretinib (first compound 1.265 µM), 0.517; with TPCA-1 + Foretinib (first compound 4 µM), 0.227; with TPCA-1 + Lapatinib (first compound 0.04 µM), 0.479; with TPCA-1 + Lapatinib (first compound 0.1265 µM), 0.428. Moreover, the relative viability is 0.462 with TPCA-1 + Lapatinib (first compound 0.4 µM), 0.361 with TPCA-1 + Lapatinib (first compound 1.265 µM) and 0.334 with TPCA-1 + Lapatinib (first compound 4 µM).

For the cell line NCI-H522, the relative viability in test [1] (first compound 0.2 µM) amounted to 0.855; in test [1] (first compound 0.6325 µM), 1.33; in test [1] (first compound 2 µM), 1.03; in test [1] (first compound 6.325 µM) it was 0.735; in test [1] (first compound 20 µM) it was 0.917.

On to NCI-H596, for which the relative viability with TPCA-1 + Bortezomib (first compound 0.04 µM) worked out at 1.07; with TPCA-1 + Bortezomib (first compound 0.1265 µM), 0.976; in the test with TPCA-1 + Bortezomib (first compound 0.4 µM), 1.07; with TPCA-1 + Bortezomib (first compound 4 µM), 0.976; in the test with TPCA-1 + Foretinib (first compound 0.04 µM), 0.953; with TPCA-1 + Foretinib (first compound 0.1265 µM), 0.811. The relative viability with TPCA-1 + Foretinib (first compound 0.4 µM) is 0.855; with TPCA-1 + Foretinib (first compound 1.265 µM), 0.98; with TPCA-1 + Foretinib (first compound 4 µM) it was 0.937; with TPCA-1 + Lapatinib (first compound 0.04 µM) it was 1.06; with TPCA-1 + Lapatinib (first compound 0.1265 µM), 1.08; with TPCA-1 + Lapatinib (first compound 0.4 µM), 1.15. Besides, the relative viability in the test with TPCA-1 + Lapatinib (first compound 1.265 µM) is 1.13; with TPCA-1 + Lapatinib (first compound 4 µM), 1.07.

(Values after the supplement of paper PMC10307832.)
